The values below come from PubChem BioAssay AID1204 (EPA DSSTox, 2008).

Records with an inconclusive call do not appear. Activity calls are given as the source filed them.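 The calls were made as follows: active = relative estrogen receptor binding affinity above 1E-5, where estradiol scores 100; inconclusive = weak binder, under half inhibition at top dose, or affinity below 1E-5; inactive = no binding seen, affinity zero.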

For this data set, the system named is estrogen receptor (rat uterine cytosol). Briefly: DSSTox (NCTRER) National Center for Toxicological Research Estrogen Receptor Binding Database.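 As to relative binding affinity: ratio of estradiol IC50 over compound IC50 times 100 so estradiol equals 100.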 The note with it: rat uterine cytosol ER competitive binding, RBA; for relative binding affinity: stronger effect = higher value. From the text:
Researchers within FDA's National Center for Toxicological Research (NCTR) generated a database of experimental estrogen receptor binding results for the express purpose of developing improved QSAR models to predict ER binding affinities.The NCTR ER database is a structurally diverse set of natural, synthetic, and environmental estrogens covering most known estrogenic classes and spanning a wide range of biological activity. It represents the largest published ER binding database of same-assay results generated in a single laboratory. […] Information on the percent purity and purchasing source for all chemicals are not included in the DSSTox SDF, but can be obtained from the original NCTR ER Source database and Main Citations listed below. The main citation (Fang et al., 2001) surveys the NCTR ER database from a chemical class based, structure-activity relationship (SAR) perspective. Qualitative SAR characteristics of the NCTR ER database are discussed and a set of general hierarchical rules for identifying potential estrogens are presented. The DSSTox NCTRER SDF augments the original NCTR ER database with chemical class and SAR information abstracted from Fang et al. (2001). The DSSTox SDF file supplements the measured ER relative binding affinity for each chemical (ER_RBA) with chemical class assignment to one of 6 major estrogenic classes further divided into 20 subclasses (ChemClass_ERB), along with a qualitative activity measure, ActivityCategory_ER_RBA. A brief narrative SAR rationale pertaining to ER RBA patterns observed by Fang et al. (2001) for each of the 20 subclasses within the database are provided in the field, ActivityCategory_Rationale_ChemClass_ERB. The original NCTR ER database, from which the expanded DSSTox NCTRER was formed, is contained within a larger Endocrine Disruptor Knowledge Base (EDKB) accessible from the FDA Source Website. That website provides online access to a relational database comprised of in vitro and in vivo experimental data for about 2000 natural and synthetic compounds, much of this extracted from the literature and representing testing in many laboratories. Data are included for biological assays that measure estrogenic and androgenic activity. Estrogenic endpoints include in vitro assays for estrogen receptor competitive binding affinity, cell proliferation, and reporter-gene assays, and in vivo assays for uterotrophic activity (i.e., uterine weight gain and vaginal cornification). The database also contains a bibliography of over 1200 citations, many of which include abstracts.
Estrogen receptor relative binding affinity is determined using a competitive receptor binding assay as described in NCTRER Ref (Blair et al., 2000). Briefly, a chemical competes with radiolabeled E2 (i.e., estradiol) for binding to the ER in rat uterine cytosol and the concentration of chemical that causes 50% inhibition of E2 binding (i.e., IC50) is measured. The ER_RBA is calculated by dividing the IC50 of E2 (9X10-10M) by the IC50 of the competitor and multiplying by 100 (E2 RBA = 100). The validated assay tested 1nM E2 with concentrations of competitor ranging from 1nM to 1mM. The larger the ER_RBA values, the greater the binding affinity; ER_RBA > 100 means compound has greater binding affinity than natural ER ligand, E2. […] Activity Score is mapping of LOG_ER_RBA values (ER-RBA>1E-5), spanning activity range [MIN, MAX] onto Integer 20-100 Activity range, where 100 is highest potency and 20 is lowest active potency. If Activity Outcome is "active": Activity Score = 80 * INTEGER[(LOG_ER_RBA - MIN)/(MAX […] MIN)]. If Activity Outcome is "inconclusive" (i.e., slight binder): Activity Score = 5.

The mark [1] stands for this setting: ChemClass_ERB: Diphenylmethanes DDTs.
Setting [2] is: ChemClass_ERB: Diphenylmethanes Diphenolalkanes.
[3] abbreviates: ChemClass_ERB: DES Hexestrol derivatives.
[4] abbreviates: ChemClass_ERB: Phytoestrogens Chalconoids.
Where [5] appears, read: ChemClass_ERB: Phytoestrogens Isoflavones.
Where [6] appears, read: ChemClass_ERB: Diphenylmethanes Benzophenones.
The mark [7] stands for this setting: ChemClass_ERB: Steroids With aromatic A ring.
Where [8] appears, read: ChemClass_ERB: Phenols Alkyloxy.
[9] abbreviates: ChemClass_ERB: Phenols Parabens.

Regarding `Oc1ccc(C(c2ccc(O)cc2)C(Cl)(Cl)Cl)cc1`, under setting [1], the relative binding affinity was 0.251%.
Regarding `O=C(O)c1ccccc1C(c1ccc(O)cc1)c1ccc(O)cc1`, the relative binding affinity under setting [2] was 0.00021%.
For the compound `CC/C(=C(/CC)c1ccc(OC)cc1)c1ccc(O)cc1`, for the setting “ChemClass_ERB: DES Derivatives”, the relative binding affinity is 20.4%.
As for `COc1ccc(C(=C(Cl)Cl)c2ccc(O)cc2)cc1`, the relative binding affinity under setting [1] is 0.234%.
`CCC(c1ccc(C)cc1)C(CC)c1ccc(O)cc1` (centres undefined): the relative binding affinity under setting [3] was 3.98%.
As to `CCC(C)c1ccccc1` (centres undefined), the outcome (ChemClass_ERB: Misc) was inactive.
Consider `Nc1ccc(Oc2ccc(N)cc2)cc1`, for which, where the note is “ChemClass_ERB: Misc”, the outcome was inactive.
Consider `OCCCCCCCCO`, for which, under “ChemClass_ERB: Misc”, the result was inactive.
For the compound `O=C(/C=C/c1ccc(O)cc1)c1ccccc1`, the relative binding affinity under setting [4] is 0.00281%.
Regarding `O=C1CCC(N2C(=O)c3ccccc3C2=O)C(=O)N1` (centres undefined), under “ChemClass_ERB: Misc”, the outcome was inactive.
`CCC(c1ccc(O)cc1)C(CC)c1ccc(OC)cc1` (centres undefined): the relative binding affinity under setting [3] is 9.33%.
Consider `Oc1ccc([C@H]2COc3cc(O)ccc3C2)cc1`, for which, under setting [5], the relative binding affinity is 0.151%.
With `O=c1cc(-c2ccccc2)oc2cc(O)cc(O)c12`, the result (ChemClass_ERB: Phytoestrogens Flavones) was inactive.
With `ClC1=C(Cl)[C@@]2(Cl)[C@@H]3[C@@H](Cl)[C@H](Cl)C[C@@H]3C1(Cl)C2(Cl)Cl`, the outcome (ChemClass_ERB: Misc) was inactive.
With `COc1ccc(-c2coc3cc(O)cc(O)c3c2=O)cc1`, the relative binding affinity under setting [5] is 0.0043%.
Consider `O=C1CC(c2cccc(O)c2)Oc2ccccc21` (centres undefined), for which the relative binding affinity (ChemClass_ERB: Phytoestrogens Flavanones) was 0.00165%.
In the case of `Oc1ccc(-c2ccc(Cl)cc2)cc1`, the relative binding affinity (ChemClass_ERB: Biphenyls PCBs) was 0.0066%.
Regarding `O=C(c1ccccc1O)c1ccccc1O`, under setting [6], the outcome was inactive.
With `CCOC(=O)c1ccccc1C(=O)OCC`, the outcome (ChemClass_ERB: Misc) was inactive.
For `C[C@]12CC[C@H]3[C@@H](CCC4=CC(=O)CC[C@@]43C)[C@@H]1CC[C@@H]2O`, the outcome (ChemClass_ERB: Steroids Without aromatic A ring) was inactive.
Consider `C[C@]12CC[C@@H]3c4ccc(O)cc4[C@@H](O)C[C@H]3[C@@H]1CC[C@@H]2O`, for which the relative binding affinity under setting [7] was 0.708%.
Consider `Oc1ccc(Cl)cc1Cc1cc(Cl)ccc1O`, for which the relative binding affinity under setting [2] is 0.0035%.
As to `C[C@H](Cc1ccc(O)c(O)c1)[C@H](C)Cc1ccc(O)c(O)c1`, for the setting “ChemClass_ERB: Misc”, the relative binding affinity is 0.0309%.
On to `O=S(=O)(c1ccc(O)cc1)c1ccc(O)cc1`, for which the relative binding affinity under setting [6] was 0.00085%.
Consider `Oc1c(Cl)cc(-c2cc(Cl)c(O)c(Cl)c2)cc1Cl`, for which the relative binding affinity (ChemClass_ERB: Biphenyls PCBs) is 0.00056%.
For `CCCCCCCOc1ccc(O)cc1`, the relative binding affinity under setting [8] is 0.00131%.
As for `COc1cc(O)c2c(=O)c(-c3ccc(O)cc3)coc2c1`, the relative binding affinity under setting [5] is 0.00181%.
For the compound `CCOC(=O)c1ccc(O)cc1`, under setting [9], the relative binding affinity was 0.0006%.
For the compound `O=C(/C=C/c1ccccc1)c1ccc(O)cc1`, under setting [4], the relative binding affinity is 0.0037%.
For the compound `COc1ccc2c(c1)CC[C@@H]1[C@@H]2CC[C@]2(C)[C@@H](O)[C@H](O)C[C@@H]12`, the relative binding affinity under setting [7] is 0.0224%.
As for `COc1ccc(C(=O)c2ccccc2O)c(O)c1`, the result under setting [6] was inactive.
Regarding `Nc1ccc(Cc2ccc(N)cc2)cc1`, the result (ChemClass_ERB: Misc) was inactive.
Turning to `Oc1ccc(/C=C/c2ccc(O)cc2)cc1`, the relative binding affinity (ChemClass_ERB: DES Derivatives) is 0.282%.
On to `O=C(OCc1ccccc1)c1ccc(O)cc1`, for which the relative binding affinity under setting [9] was 0.00288%.
Take `CCOC(=O)/C=C/c1ccccc1`: the outcome (ChemClass_ERB: Misc) was inactive.
For `Oc1ccc(-c2ccccc2)c(Cl)c1`, the relative binding affinity (ChemClass_ERB: Biphenyls PCBs) was 0.00169%.
Take `C[C@]12CC[C@@H]3c4ccc(O)c(O)c4CC[C@H]3[C@@H]1CC[C@@H]2O`: the relative binding affinity under setting [7] was 66.1%.
Regarding `Oc1ccccc1-c1ccccc1`, the outcome (ChemClass_ERB: Biphenyls nonchlorinated) was inactive.
On to `O=C(O)COc1ccc(Cl)cc1Cl`, for which the outcome (ChemClass_ERB: Misc) was inactive.
For `Oc1ccccc1Cl`, the result (ChemClass_ERB: Phenols Alkyl) was inactive.
On to `Oc1ccc(Cc2ccc(O)cc2)cc1`, for which the relative binding affinity under setting [2] was 0.00095%.
On to `Oc1ccc(OCc2ccccc2)cc1`, for which the relative binding affinity under setting [8] was 0.00036%.
For `Cn1c(=O)c2c(ncn2C)n(C)c1=O`, the outcome (ChemClass_ERB: Misc) was inactive.
`c1ccc2c(c1)ccc1c3ccccc3ccc21`: the result (ChemClass_ERB: Misc) was inactive.
